Values joined by “and” are separate entries in the source; they are usually repeats but may differ in a detail not shown here. Equal values may be shown once.
Molecular target: Genome polyprotein (dengue virus type 2, UniProt P29990)
Format: functional, Thailand/16681/1984

Genome polyprotein, sequence (P29990 1346-1475 limits assumed): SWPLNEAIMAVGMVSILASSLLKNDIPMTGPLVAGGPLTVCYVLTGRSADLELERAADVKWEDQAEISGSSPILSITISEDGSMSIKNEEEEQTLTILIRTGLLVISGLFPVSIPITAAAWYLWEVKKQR
Genome polyprotein, sequence (P29990 1476-2093 limits assumed): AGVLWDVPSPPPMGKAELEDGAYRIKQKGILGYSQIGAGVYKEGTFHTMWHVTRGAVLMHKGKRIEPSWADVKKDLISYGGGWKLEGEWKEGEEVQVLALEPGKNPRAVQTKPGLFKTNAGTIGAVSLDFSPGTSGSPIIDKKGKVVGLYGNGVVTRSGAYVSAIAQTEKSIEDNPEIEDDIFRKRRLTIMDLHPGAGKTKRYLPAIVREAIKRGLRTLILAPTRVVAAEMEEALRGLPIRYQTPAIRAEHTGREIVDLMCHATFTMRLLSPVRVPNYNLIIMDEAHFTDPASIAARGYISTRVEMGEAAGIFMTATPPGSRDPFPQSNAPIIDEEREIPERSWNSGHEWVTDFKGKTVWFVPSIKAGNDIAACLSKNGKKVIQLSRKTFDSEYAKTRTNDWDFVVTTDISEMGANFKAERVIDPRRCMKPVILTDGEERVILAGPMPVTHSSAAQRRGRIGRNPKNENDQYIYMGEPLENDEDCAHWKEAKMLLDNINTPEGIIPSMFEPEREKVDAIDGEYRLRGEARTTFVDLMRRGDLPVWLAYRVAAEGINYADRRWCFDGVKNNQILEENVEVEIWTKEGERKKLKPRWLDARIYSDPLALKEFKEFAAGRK

Compound	IC50
Cc1ncsc1C(=O)N[C@H](C(=O)Nc1cccc(CN)c1)c1ccc(OCc2ccccc2)cc1	> 99.5 µM
CCc1cc(F)ccc1CC(=O)N1CCCc2cc(CCN)ccc21	> 99.5 µM
O=C(O)c1cc(Cl)ccc1NS(=O)(=O)c1ccc(OCc2ccncc2)cc1	> 99.5 µM
Cc1noc(C)c1C(=O)N[C@@H](C(=O)Nc1cccc(CN)c1)c1ccc(OCc2ccccc2)cc1	> 99.5 µM
O=C(NCCO)c1cc(Cl)ccc1NS(=O)(=O)c1ccc(Oc2ccccc2Cl)cc1	68 µM
NCc1cccc(NC(=O)[C@H](NC(=O)C2CCC2)c2ccc(OCc3ccccc3)cc2)c1	> 99.5 µM
N[C@H]1CCc2cc(-c3ccn(-c4ccccc4)n3)ccc2C1	> 99.5 µM
O=C(O)c1cc2c(cc1NS(=O)(=O)c1ccc(F)cc1)CCC2	> 99.5 µM
CCc1ccccc1COc1ccc(S(=O)(=O)Nc2ccc(Cl)cc2C(=O)O)cc1	6.5 µM
NCc1cccc(NC(=O)C[C@H](NC(=O)OCc2ccccc2)c2ccc(OC(F)(F)F)cc2)c1	42.9 µM and 44.6 µM
Cc1ccc(F)c2c1CCN(Cc1ccn(C3CNC3)c1)C2	> 99.5 µM
N[C@]12CCC[C@](C(=O)NCc3ccc4c(c3)CCNCC4)(CC1)C2	> 99.5 µM
NCc1cccc(NC(=O)C[C@H](NC(=O)OCc2ccccc2)c2ccc(Cl)c(Br)c2)c1	22.8 µM and 22.9 µM and 12.9 µM and 12.6 µM
CCn1nccc1-c1cccc([C@@H](NC(=O)OCc2ccccc2)C(=O)Nc2cccc(CN)c2)c1	> 99.5 µM
CC(C)(C)c1cc(N2CCN(c3cccc4[nH]ncc34)CC2)nc(C(=O)O)n1	> 99.5 µM
NCCNC(=O)c1cc(Cl)ccc1NS(=O)(=O)c1ccc(Oc2ccccc2Cl)cc1	> 99.5 µM
O=C(N[C@@H](C(=O)NCc1cn[nH]c1)c1ccc(OCc2ccccc2)cc1)OCc1ccccc1	> 99.5 µM
O=C(O)c1cc(Cl)ccc1NS(=O)(=O)c1ccc(OCc2nnnn2C2CCC2)cc1	> 99.5 µM
NCc1cccc(NC(=O)[C@H](NC(=O)OCc2ccccc2)c2ccc(Br)c(Cl)c2)c1	11 µM and 8.42 µM and 6.79 µM and 9.88 µM and 12.5 µM and 8.05 µM
NCc1cccc(NC(=O)[C@H](NC(=O)OCc2ccccc2)c2ccc(Br)c(F)c2)c1	88.2 µM
O=C(O)c1cc(Cl)ccc1NS(=O)(=O)c1ccc(OCc2cncnc2)cc1	> 99.5 µM
Cc1cccnc1COc1ccc(S(=O)(=O)Nc2ccc(Cl)cc2C(=O)O)cc1	> 99.5 µM
O=C(N[C@@H](C(=O)NCc1cnccn1)c1ccc(OCc2ccccc2)cc1)OCc1ccccc1	> 99.5 µM
O=C(O)c1cc(Cl)ccc1NS(=O)(=O)c1ccc(NC2CCNCC2)nc1	> 99.5 µM

Compound	IC50
N#Cc1c(C(F)F)cccc1N1CCC(n2ncc(N)c2C(F)(F)F)CC1	> 99.5 µM
NCc1cccc(CNC(=O)c2cc(Cl)cc(NC(=O)OCc3ccccc3)c2)c1	> 99.5 µM
CCn1c(=O)c(N2C[C@H]3C[C@@]3(C(F)F)C2)nc2ccccc21	> 99.5 µM
Cc1cc(F)cc(N(C)C(=O)c2ccc(C3(CN)CC3)cc2)c1	> 99.5 µM
NCc1cccc(NC(=O)[C@H]2[C@H]3CCCC[C@H]3[C@@H]2NC(=O)OCc2ccccc2)c1	95.5 µM
N[C@H]1CC[C@H](NC(=O)[C@@H](NC(=O)OCc2ccccc2)c2ccc(OCc3ccccc3)cc2)CC1	> 99.5 µM
NCc1ccnc(CNC(=O)[C@@H](NC(=O)OCc2ccccc2)c2ccc(OCc3ccccc3)cc2)c1	> 99.5 µM
CCn1c(=O)c(N2CC[C@H](c3nccn3C)C2)nc2ccccc21	> 99.5 µM
Cc1n[nH]cc1CC(=O)N1CCCC12CCN(C(=O)c1ccnc(CO)c1)CC2	> 99.5 µM
NCc1cccc(NC(=O)C[C@H](NC(=O)OCc2ccccc2)c2ccc(Cl)c(F)c2)c1	97.6 µM
CC[C@H]1CN(C(=O)c2ccc(C3(CN)CC3)cc2)Cc2ccccc21	> 99.5 µM
Cn1cnc2c1CN(Cc1ccc3c(c1)CCNCC3)CC2	> 99.5 µM
CCn1c(=O)c(N2CC[C@H](N3CCCC3=O)C2)nc2ccccc21	> 99.5 µM
CCn1c(=O)c(N2CC[C@H](c3cnccn3)C2)nc2ccccc21	> 99.5 µM
NCc1cccc(NC(=O)[C@@H]2Cc3ccc(OCc4ccccc4)cc3CN2C(=O)OCc2ccccc2)c1	86.7 µM
NCC1(c2ccc(C(=O)N3CCc4scc(Br)c4C3)cc2)CC1	> 99.5 µM
CCn1c(=O)c(N2CC[C@]3(CCNC3=O)C2)nc2ccccc21	> 99.5 µM
NCc1cccc(CNC(=O)[C@@H](NC(=O)OCc2ccccc2)c2ccc(OCc3ccccc3)cc2)n1	> 99.5 µM
NCc1cccc(NC(=O)[C@]2(NC(=O)OCc3ccccc3)COc3cc(Br)ccc32)c1	> 99.5 µM
Cc1ccc(CNC(=O)[C@@H](NC(=O)OCc2ccccc2)c2ccc(OCc3ccccc3)cc2)cn1	> 99.5 µM
CCn1c(=O)c(N2C[C@H]3COC[C@@]3(C)C2)nc2ccccc21	> 99.5 µM
CC(C)CNC(=O)c1cc(Cl)ccc1C=Cc1ccc(Oc2ccccc2Cl)cc1	> 99.5 µM
NCc1ccc(CNC(=O)[C@@H](NC(=O)OCc2ccccc2)c2ccc(OCc3ccccc3)cc2)cc1	16 µM and 8.53 µM and 8.03 µM
NCc1ccccc1C1CCN(C(=O)[C@@]23CNC[C@]2(C(F)(F)F)C3)CC1	> 99.5 µM

Compound	IC50
CCn1c(=O)c(N2CC[C@H](c3ccccc3)C2)nc2ccccc21	> 99.5 µM
CCOC(=O)c1cc(C(=O)N[C@H](C(=O)Nc2cccc(CN)c2)c2ccc(OCc3ccccc3)cc2)n(C)n1	24.3 µM and 24.8 µM
Cc1occ(C(F)(F)F)c1C(=O)N[C@H](C(=O)Nc1cccc(CN)c1)c1ccc(OCc2ccccc2)cc1	> 99.5 µM
NCc1cccc(NC(=O)[C@H](NC(=O)[C@H]2CCOC2)c2ccc(OCc3ccccc3)cc2)c1	> 99.5 µM
NCc1cccc(NC(=O)[C@H](NC(=O)c2ccccc2Cl)c2ccc(OCc3ccccc3)cc2)c1	45.8 µM
C[C@]1(C(=O)N[C@H](C(=O)Nc2cccc(CN)c2)c2ccc(OCc3ccccc3)cc2)COc2ccccc2O1	52.3 µM
O=C(NC1CCCCC1)c1cc(Cl)ccc1NS(=O)(=O)c1ccc(Oc2ccccc2Cl)cc1	13.7 µM
NCc1cccc(NC(=O)[C@@H](NC(=O)OCc2ccccc2)c2ccc(OCc3ncccn3)cc2)c1	> 99.5 µM
NCc1cccc(NC(=O)[C@H]2[C@H]3CCCCC[C@H]3[C@H]2NC(=O)OCc2ccccc2)c1	23.2 µM and 34.2 µM and 10.4 µM and 9.2 µM and 8.71 µM
Cc1cc(-c2cccc([C@@H](NC(=O)OCc3ccccc3)C(=O)Nc3cccc(CN)c3)c2)ccn1	> 99.5 µM
CCn1c(=O)c(N2C[C@H]3CCS(=O)(=O)[C@H]3C2)nc2ccccc21	> 99.5 µM
NCc1cccc(NC(=O)[C@H](NC(=O)c2ccncc2)c2ccc(OCc3ccccc3)cc2)c1	> 99.5 µM
NCc1cccc(NC(=O)[C@H]2c3ccc(Br)cc3OCCN2C(=O)OCc2ccccc2)c1	> 99.5 µM
NC[C@H]1CC[C@@H](CNC(=O)[C@@H](NC(=O)OCc2ccccc2)c2ccc(OCc3ccccc3)cc2)CC1	85.6 µM
NCc1cccc(NC(=O)[C@H](NC(=O)OCc2ccccc2)c2ccc(CO)cc2)c1	> 99.5 µM
NCc1cccc(NC(=O)[C@H](NS(=O)(=O)c2ccc(Oc3ccccc3Cl)cc2)c2ccc(OCc3ccccc3)cc2)c1	> 99.5 µM
CCCCCN(C)C(=O)c1cc(Cl)ccc1NS(=O)(=O)c1ccc(Oc2ccccc2Cl)cc1	17.8 µM
Cc1ccc([C@H]2[C@H](C)CN2C(=O)c2ccc(C(F)(F)CN)cc2)cc1	> 99.5 µM
CN(C)CCc1ccc(CNC(=O)[C@@H](NC(=O)OCc2ccccc2)c2ccc(OCc3ccccc3)cc2)cc1	> 99.5 µM
O=C(N[C@H](C(=O)NCc1cccc(CO)n1)c1ccc(OCc2ccccc2)cc1)OCc1ccccc1	> 99.5 µM
O=C(O)c1ccc(F)c(F)c1NS(=O)(=O)c1ccc(Oc2ccccc2Cl)cc1	31.1 µM
CCn1c(=O)c(N2C[C@@H]3C[C@]3(CO)C2)nc2ccccc21	> 99.5 µM
O=C(N[C@@H](C(=O)NCc1cccc2c1CCNC2)c1ccc(OCc2ccccc2)cc1)OCc1ccccc1	53.5 µM
C[C@@H](NC(=O)C1CCN(c2cccc(C(N)=O)n2)CC1)[C@H]1CCCNC1	> 99.5 µM

Compound	IC50
CCn1c(=O)c(N2C[C@H](O)C3(CC3)C2)nc2ccccc21	> 99.5 µM
CCc1n[nH]cc1-c1cccc([C@H](NC(=O)OCc2ccccc2)C(=O)Nc2cccc(CN)c2)c1	> 99.5 µM
CCn1c(=O)c(N2C[C@@H]3[C@H](C2)[C@H]2CC[C@@H]3O2)nc2ccccc21	> 99.5 µM
NCc1cccc(NC(=O)[C@H]2[C@H]3CCC[C@H]3[C@@H]2NC(=O)OCc2ccccc2)c1	> 99.5 µM
NCc1cccc(NC(=O)C[C@H](NC(=O)OCc2ccccc2)c2ccc(C(F)(F)F)cc2)c1	58.1 µM
O=C(O)c1c(F)cc(F)cc1NS(=O)(=O)c1ccc(Oc2ccccc2Cl)cc1	41.5 µM
NC[C@H]1CC[C@H](NC(=O)[C@@H](NC(=O)OCc2ccccc2)c2ccc(OCc3ccccc3)cc2)CC1	> 99.5 µM
CCN(CC(=O)NC)C(=O)c1cc(Cl)ccc1NS(=O)(=O)c1ccc(Oc2ccccc2Cl)cc1	70 µM
N[C@@H](Cc1c[nH]cn1)C(=O)N1CCC2(CC1)OCCc1cc(O)ccc12	> 99.5 µM
NC[C@H]1C[C@@H](NC(=O)c2cc(Cl)ccc2NS(=O)(=O)c2ccc(Oc3ccccc3Cl)cc2)C1	> 99.5 µM
CN(C)CCNC(=O)[C@H](NC(=O)OCc1ccccc1)c1ccc(OCc2ccccc2)cc1	> 99.5 µM
NCc1ccc2c(c1)CCC[C@H]2NCc1cc(Cl)cc2c1OCC2	> 99.5 µM
NCc1cccc(NC(=O)C[C@H](NC(=O)OCc2ccccc2)C2CCCCC2)c1	67.1 µM and 69.7 µM
O=C(N[C@@H](C(=O)NCC1CCNCC1)c1ccc(OCc2ccccc2)cc1)OCc1ccccc1	> 99.5 µM
NCc1cccc(NC(=O)[C@H](NC(=O)Cn2cccn2)c2ccc(OCc3ccccc3)cc2)c1	> 99.5 µM
NC[C@H]1CC[C@H](CNC(=O)[C@@H](NC(=O)OCc2ccccc2)c2ccc(OCc3ccccc3)cc2)CC1	> 99.5 µM
C[C@]1(C(=O)N[C@H](C(=O)Nc2cccc(CN)c2)c2ccc(OCc3ccccc3)cc2)CCCO1	> 99.5 µM
CCn1ccnc(N2CC(=O)[C@@H](c3c[nH]c4ccccc34)C2)c1=O	> 99.5 µM
NCc1cccc(NC(=O)c2cc(Cl)ccc2NS(=O)(=O)c2ccc(Oc3ccccc3Cl)cc2)c1	> 99.5 µM
O=S(=O)(Nc1ccc(Cl)cc1CN(CC1CC1)CC1CC1)c1ccc(Oc2ccccc2Cl)cc1	67.1 µM
O=C(NCc1nnn[nH]1)c1cc(Cl)ccc1NS(=O)(=O)c1ccc(Oc2ccccc2Cl)cc1	64.5 µM
NCc1cccc(NC(=O)C[C@H](NC(=O)OCc2ccccc2)c2ccc(Br)cc2)c1	51.8 µM
NCc1ccc(-c2ccc(OCC3CCNCC3)nc2-c2ccc(-c3ccoc3)cc2)cc1	67.1 µM

— ChEMBL document CHEMBL5604063, “ASAP - DENV-2 NS2B-NS3 protease fluorescence dose response” (2024)
